Measured values from patent publication US8178658B2 (Dow AgroSciences, LLC, priority 2008, dated 2012).

Experiments:
[1] = system: beet armyworm (BAW; Spodoptera exigua: Lepidoptera); experiment: 96-well microtiter plate-based high throughput (HTS) diet bioassay on beet armyworm (BAW HTS); format: in vivo; details: for BAW HTS: BAW eggs, 12 μg test compound per well, mortality at 6 d post-treatment, mortality class
Summary of the method: (§1)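 Two diet-incorporation-style surface tests were run. Eggs infested treated diet (12 μg/well) in plates incubated dark at 29° C, with mortality taken on day 6 from six replicates. Separately, second-instar larvae fed on treated diet (50 μg/cm^2) at 25° C, 14:10 L:D, with six-day mortality averaged over eight wells.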

[2] = system: beet armyworm (BAW; Spodoptera exigua: Lepidoptera); experiment: 128-well diet tray assay on beet armyworm (BAW 50); format: in vivo; details: for BAW 50 ug/cm2: 128-well diet tray assay, 50 μg/cm^2 of test compound on diet, second instar BAW larvae, mortality class
Summary of the method: as §1

[3] = 96-well microtiter plate HTS diet assay

Compound | BAW HTS ([1]; 96-well HTS diet bioassay) | BAW HTS [1, 3] | BAW 50 ug/cm2 [2] | BAW HTS ([1]; 96-well HTS diet assay) | pest or weed control at 12 µg/well, 12 µg/well ([1]; Spodoptera exigua, 144 h, read-out: BAW HTS) [%] | pest or weed control at 50 µg/cm2, 50 µg/cm2 ([2]; Spodoptera exigua, 144 h, read-out: BAW 50 ug/cm2) [%]
CCCc1ccc(-n2cnc(-c3ccc(/C=N/O[C@@H]4O[C@@H](C)[C@H](OC)[C@@H](OCC)[C@H]4OC)cc3)c2)cc1 [Compound 29] | B (either (1) the compound was tested and less than 50 percent mortality was observed or (2) the compound was not tested) | B (either (1) the compound was tested and less than 50 percent mortality was observed or (2) the compound was not tested) | A (the compound was tested and at least 50 percent mortality was observed) |  |  | 
CCO[C@@H]1[C@@H](OC)[C@H](C)O[C@H](OC(=O)Nc2ccc(C3=NOC(c4ccc(C(F)(F)F)cc4)C3)cc2)[C@@H]1OC (stereo partly shown) [Compound 182] |  | B (either (1) the compound was tested and less than 50 percent mortality was observed or (2) the compound was not tested) | B (either (1) the compound was tested and less than 50 percent mortality was observed or (2) the compound was not tested) | B (either (1) the compound was tested and less than 50 percent mortality was observed or (2) the compound was not tested) |  | 
COC1C(C)OC(ON=Cc2ccc(-c3ncn(-c4ccc(SC(F)(F)C(F)(F)F)cc4)n3)cc2)C(OC)C1OC (stereo not shown) [Compound 105] | B (either (1) the compound was tested and less than 50 percent mortality was observed or (2) the compound was not tested) | B (either (1) the compound was tested and less than 50 percent mortality was observed or (2) the compound was not tested) | A (the compound was tested and at least 50 percent mortality was observed) |  |  | 
CO[C@@H]1[C@@H](OC)[C@H](C)O[C@@H](O/N=C/c2ccc(C3=NN(c4ccccc4)CC3)cc2)[C@@H]1OC [Compound 73] | B (either (1) the compound was tested and less than 50 percent mortality was observed or (2) the compound was not tested) | B (either (1) the compound was tested and less than 50 percent mortality was observed or (2) the compound was not tested) | A (the compound was tested and at least 50 percent mortality was observed) |  |  | 
COC1C(C)OC(ON=Cc2ccc(-c3cn(-c4ccc(C(F)(F)F)cc4)nn3)cc2)C(OC)C1OC (stereo not shown) [Compound 78] | B (either (1) the compound was tested and less than 50 percent mortality was observed or (2) the compound was not tested) | B (either (1) the compound was tested and less than 50 percent mortality was observed or (2) the compound was not tested) | A (the compound was tested and at least 50 percent mortality was observed) |  |  | 
COC1C(C)OC(ON=Cc2ccc(-c3csc(-c4ccc(C(F)(F)F)cc4)n3)cc2)C(OC)C1OC (stereo not shown) [Compound 65] | A (the compound was tested and at least 50 percent mortality was observed) | A (the compound was tested and at least 50 percent mortality was observed) | A (the compound was tested and at least 50 percent mortality was observed) |  |  | 
CCO[C@@H]1[C@@H](OC)[C@H](C)O[C@@H](OC(=O)N(COC)c2ccc(-c3ncn(-c4ccc(OC(F)(F)F)cc4)n3)cc2)[C@@H]1OC [Compound 254, methoxymethyl {4-[1-(4-trifluoromethoxyphenyl)-1H-[1,2,4]triazol-3-yl]-phenyl}-carbamic acid (2S,3R,4R,5S,6S)-4-ethoxy-3,5-dimethoxy-6-methyl-tetrahydropyran-2-yl ester] |  | A (the compound was tested and at least 50 percent mortality was observed) | A (the compound was tested and at least 50 percent mortality was observed) |  | > 50 | > 50
CCOC1C(OC)C(C)OC(ON=Cc2ccc(-c3ncc(-c4ccc(OC(F)(F)C(F)(F)F)cc4)cn3)cc2)C1OC (stereo not shown) [Compound 142] |  | A (the compound was tested and at least 50 percent mortality was observed) | A (the compound was tested and at least 50 percent mortality was observed) | A (the compound was tested and at least 50 percent mortality was observed) |  | 
COC1C(C)OC(ON=Cc2ccc(-c3csc(-c4ncc(C(F)(F)F)cc4Cl)n3)cc2)C(OC)C1OC (stereo not shown) [Compound 63] | A (the compound was tested and at least 50 percent mortality was observed) | A (the compound was tested and at least 50 percent mortality was observed) | A (the compound was tested and at least 50 percent mortality was observed) |  |  | 
CCCO[C@@H]1[C@@H](OC)[C@H](C)O[C@@H](OC(=O)Nc2ccc(-c3ncn(-c4ccc(OC(F)(F)C(F)(F)C(F)(F)F)cc4)n3)cc2)[C@@H]1OC [Compound 216] |  | A (the compound was tested and at least 50 percent mortality was observed) | A (the compound was tested and at least 50 percent mortality was observed) | A (the compound was tested and at least 50 percent mortality was observed) |  | 
COC1C(C)OC(ON=Cc2ccc(-c3cncc(-c4ccc(OC(F)(F)F)cc4)c3)cc2)C(OC)C1OC (stereo not shown) [Compound 135] |  | B (either (1) the compound was tested and less than 50 percent mortality was observed or (2) the compound was not tested) | A (the compound was tested and at least 50 percent mortality was observed) | B (either (1) the compound was tested and less than 50 percent mortality was observed or (2) the compound was not tested) |  | 
COC1C(C)OC(ON=Cc2ccc(-c3cn(-c4ccc(OC(F)(F)F)c(C(F)(F)F)c4)cn3)cc2)C(OC)C1OC (stereo not shown) [Compound 59] | A (the compound was tested and at least 50 percent mortality was observed) | A (the compound was tested and at least 50 percent mortality was observed) | A (the compound was tested and at least 50 percent mortality was observed) |  |  | 
CO[C@@H]1[C@@H](OC)[C@H](C)O[C@@H](O/N=C/c2ccc(-c3ncn(-c4ccc(C(F)(F)F)cc4)n3)cc2)[C@@H]1OC [Compound 80] | A (the compound was tested and at least 50 percent mortality was observed) | A (the compound was tested and at least 50 percent mortality was observed) | A (the compound was tested and at least 50 percent mortality was observed) |  |  | 
COC1C(C)OC(ON=Cc2ccc(-c3ncn(-c4ccc(Br)cc4)n3)cc2)C(OC)C1OC (stereo not shown) [Compound 102] | B (either (1) the compound was tested and less than 50 percent mortality was observed or (2) the compound was not tested) | B (either (1) the compound was tested and less than 50 percent mortality was observed or (2) the compound was not tested) | B (either (1) the compound was tested and less than 50 percent mortality was observed or (2) the compound was not tested) |  |  | 
CCCCO[C@@H]1[C@@H](OC)[C@H](C)O[C@H](OC(=O)Nc2ccc(-n3cnc(-c4ccc(C(F)(F)F)cc4)n3)cc2)[C@@H]1OC [Compound 199] |  | A (the compound was tested and at least 50 percent mortality was observed) | A (the compound was tested and at least 50 percent mortality was observed) | A (the compound was tested and at least 50 percent mortality was observed) |  | 
CCO[C@@H]1[C@@H](OC)[C@H](C)O[C@H](OC(=O)Nc2ccc(-c3ncn(-c4ccc(OC(F)(F)F)cc4)n3)cc2)[C@@H]1OC [Compound 210] |  | A (the compound was tested and at least 50 percent mortality was observed) | A (the compound was tested and at least 50 percent mortality was observed) | A (the compound was tested and at least 50 percent mortality was observed) |  | 
CCCOC1C(OC)C(C)OC(ON=Cc2ccc(-c3ncn(-c4ccc(OC(F)(F)C(F)(F)F)cc4)n3)cc2)C1OC (stereo not shown) [Compound 106] | B (either (1) the compound was tested and less than 50 percent mortality was observed or (2) the compound was not tested) | B (either (1) the compound was tested and less than 50 percent mortality was observed or (2) the compound was not tested) | A (the compound was tested and at least 50 percent mortality was observed) |  |  | 
COC1C(C)OC(ON=Cc2ccc(-c3nc(-c4ccc(C(C)(C)C)cc4)n[nH]3)cc2)C(OC)C1OC (stereo not shown) [Compound 97] | B (either (1) the compound was tested and less than 50 percent mortality was observed or (2) the compound was not tested) | B (either (1) the compound was tested and less than 50 percent mortality was observed or (2) the compound was not tested) | A (the compound was tested and at least 50 percent mortality was observed) |  |  | 
CCOC1C(OC)C(C)OC(ON=Cc2ccc(-c3ncn(-c4ccc(OC(F)(F)F)cc4)n3)cc2)C1OC (stereo not shown) [Compound 120] | A (the compound was tested and at least 50 percent mortality was observed) | A (the compound was tested and at least 50 percent mortality was observed) | A (the compound was tested and at least 50 percent mortality was observed) |  |  | 
COC1C(C)OC(ON=Cc2ccc(-c3cn(-c4ccc(Br)cc4)cn3)cc2)C(OC)C1OC (stereo not shown) [Compound 45] | B (either (1) the compound was tested and less than 50 percent mortality was observed or (2) the compound was not tested) | B (either (1) the compound was tested and less than 50 percent mortality was observed or (2) the compound was not tested) | A (the compound was tested and at least 50 percent mortality was observed) |  |  | 
CCOC1C(OC)C(C)OC(ON=Cc2ccc(N3CCN(c4ccc(C(F)(F)F)cn4)CC3)cc2)C1OC (stereo not shown) [Compound 161] |  | A (the compound was tested and at least 50 percent mortality was observed) | A (the compound was tested and at least 50 percent mortality was observed) | A (the compound was tested and at least 50 percent mortality was observed) |  | 
